Measured values published in US9694089B2, “Integrin targeting agents and in-vivo and in-vitro imaging methods using the same” (Visen Medical, Inc., priority 2008, dated 2017).
Blank lines part the entries; values can stand above or below the compound they belong to.

What was measured:
ανβ5 = target: T1, ανβ5 (Homo sapiens, UniProt P06756+P18084); experiment: Inhibition of cell attachment to vitronectin, HEK293 cells transfected with ανβ5; assay type: cell-based; details: for IC50: HEK293 cells stably transfected with ανβ5, read-out: IC50 (nM), inhibition of cell attachment to vitronectin, αvβ5
T1 construct: expressed in transfected cells; host or cells: HEK293
Protocol: (§1) In this experiment, human embryonic kidney (HEK293) cells stably transfected with ανβ3 (HEK293-ανβ3 cells) were released with trypsin-EDTA and washed four times with serum-free MEM. […] Non-attached cells were gently washed away. Similar experiments were carried out with HEK293 cells stably transfected with ανβ5, α11bβ3, or α5β1. The attached cells were quantified by colorimetric detection of hexosaminidase enzymatic activity in a Vmax plate reader (Molecular Devices, Menlo Park, Calif.). The number of attached cells was quantified using a standard curve for each cell line assayed and expressed as a mean value of triplicate samples.

ανβ3 [1] = target: T2, ανβ3 (Homo sapiens, UniProt P05106+P06756); experiment: Equilibrium binding and dissociation measurements by flow cytometry on HEK293-ανβ3 cells
T2 construct: expressed in transfected cells; host or cells: HEK293
Protocol: The amount of probe bound to integrins on HEK293-ανβ3 cells was determined by flow cytometry (FACSCalibur, BD Biosciences, CA). Data was analyzed using FlowJo software and Kd values were calculated using SigmaPLot 10 software. For koff determination, HEK293-ανβ3 cells (1×10^6) were incubated with 100 nM of E-6 at 4° C. for 30 minutes and labeled cells were than transferred into PBS containing 10 mM of parent compound. The amount of probe bound to the integrins on HEK293-ανβ3 cells was determined by flow cytometry (FACSCalibur, BD Biosciences, CA) before mixing with unlabeled compound, and 1, 1.5, 2.5, 3.5, 4.5, 5.5, and 24 hours after mixing. Data was analyzed using FlowJo software and koff and t1/2 values calculated using SigmaPLot 10 software.

ανβ3 [2] = target: T2, ανβ3; experiment: Confocal microscopy cell binding assay on HEK293-ανβ3 cells; assay type: cell-based
Protocol: Cell binding assays using HEK293 cells stably expressing human ανβ3 were performed.
HEK293 cells stably transfected with ανβ3 (HEK293-ανβ3 cells) were plated onto poly-L-lysine coated Lab-Tek II chambered coverglass (Nuns, Rochester, N.Y.) the day before the assay. Cells were first incubated with DAPI (10 μg/ml) for 3 hours, followed by CellMask (Invitrogen, Carlsbad, Calif.) staining for 5 minutes. Cells were then washed 2× with PBS and incubated with E-6 (200 nM in PBS containing 5% serum) at 4° C. or 37° C. for 30 minutes. For the competition study, cells were incubated with parent compound (200 μM) for 1 hour before E-6 incubation. Confocal microscopy was performed on a Leica SP5 confocal system (Leica, Wetzlar, Germany).

[3] = tested on: HUVEC (Human umbilical vein endothelial cells); experiment: Cell binding assay by fluorescence microscopy, HUVEC; assay type: cell-based
Protocol: (§2) Cell binding assays were performed using HUVEC (Human umbilical vein endothelial cells) and human rhabdomyosarcoma A673 tumor cells. HUVEC or A673 (50,000 cells) (ATCC, Manassas, Va.) were seeded unto 8-well Lab-Tek chamberslides (Nalge-Nunc International, Naperville, Ill.) and left to adhere overnight at 37° C. in a humidified atmosphere containing 5% CO2. The following day, the medium was changed to fresh complete medium containing compound E-6 or free dye (20 nM), incubated for 30 minutes at 37° C., washed 2×with PBS and fixed with paraformaldehyde for 30 minutes at 4° C. Competition studies were performed by pre-incubating the cells for 5 minutes with parent compound (200 nM) before addition of E-6. The cells on the microscopy slides were then allowed to air dry protected from light. The slides were mounted with ProLong® Gold antifade reagent with DAPI (Molecular Probes, Eugene, Oreg.) and cured overnight at room temperature protected from light. Merged images of the nuclear staining (DAPI) and fluorescent signals were collected using fluorescence microscopy (Zeiss, Thornwood, N.Y.)

A673 tumors [4] = experiment: Effect of Avastin treatment on integrin and cathepsin B signals in A673 tumor-bearing mice; assay type: in vivo
Protocol: A673 tumor-bearing mice were randomized once their tumors reached the desired volume and injected i.v. with either E-6 (2 nmoles) or free dye (2 nmoles). For competition studies, mice were injected with the parent compound (100 nmoles) followed 5 minutes later by compound E-6 ([…]). For therapy studies, mice were treated with either 2 mg/kg Avastin (bevacizumab, Genentech, CA) or vehicle (PBS) intraperitoneally (i.p.) 2× week, and injected 7 days after beginning the treatment with 2 nmoles each of compound E-6 and ProSense (ProSense750, VisEn Medical, Bedford, Mass.) in a final volume of 200 μl PBS. ProSense is a protease-activatable fluorescence agent comprising fluorochromes linked to a peptide scaffold. Proteolytic cleavage of the scaffold by cathepsin B activity (and to a lesser extent cathepsins K, L, and S) releases the fluorochromes and results in extensive fluorescence (via dequenching). Imaging was performed 24 hours after administration of the agents using the FMT2500. Differential localization of fluorescent signal with compound E-6 and ProSense can be seen in the same animal. The wavelength of the laser was selected to 680 nm or 750 nm, corresponding to the absorption spectra of the fluorescent agents administered to the animal, enabling simultaneous imaging and quantification of 2 spectrally distinct agents.

A673 tumors [5] = experiment: In vivo FMT imaging and quantification of signal in A673 tumor-bearing mice; design: species or system NU/NU mice
Protocol: Female NU/NU mice 6-8 weeks old (Charles River Laboratory, Wilmington, Mass.) were injected subcutaneously (s.c.) with A673 cells (5×10^6) in the first mammary fat pads. Once tumors reached the desired volume (measured with calipers using the formula volume mm^3=(length×width^2)/2), mice were injected i.v. with E-6 ([…]) in the absence or presence of excess, competing parent compound (100 nmoles). Control mice received free dye. For in vivo imaging, mice were anesthetized by gas anesthesia (isoflurane/oxygen mixture), placed in the VisEn's FMT2500 system imaging chamber one at a time, and imaged.
The fluorescent signal was quantified by drawing a three-dimensional ROI encompassing each tumor.

ανβ3 [6] = target: T2, ανβ3; experiment: Inhibition of cell attachment to vitronectin, HEK293-ανβ3 cells; assay type: cell-based; details: for IC50: HEK293-ανβ3 cells, vitronectin-coated wells, 2 hours at 37° C., read-out: IC50 (nM), inhibition of cell attachment to vitronectin, αvβ3
Protocol: as §1

[7] = Biodistribution in A673 tumor-bearing mice; assay type: in vivo, NU/NU mice; details: 2 nmoles i.v., 24 hr
Protocol: For the biodistribution studies, female NU/NU mice 6-8 weeks old (Charles River Laboratory, Wilmington, Mass.) were injected subcutaneously (s.c.) with A673 cells (5×10^6) in the first mammary fat pads. Once tumors reached the desired volume (measured with calipers using the formula volume mm^3=(length×width^2)/2), mice were injected i.v. with compound E-6 (2 nmoles). Mice were sacrificed by carbon dioxide asphyxiation 24 hr later and certain tissues removed, rinsed with saline, blotted dry, and the imaged on VisEn's FMT2500 using the reflectance mode. Regions of interest (ROIs) were drawn around each organ using the FMT Software and the mean fluorescence (reported as counts/energy) determined for each organ and normalized to the mean fluorescence in tumors taken to be 100%.

4T-1 tumors = experiment: In vivo imaging of 4T-1 tumors; design: species or system NU/NU mice; details: 4 nmoles i.v., 24 hours post-injection
Protocol: In this experiment, NU/NU mice 6-8 weeks old (Charles River Laboratory, Wilmington, Mass.) were injected subcutaneously (s.c.) with 2×10^6 4T-1 cells bilaterally in each mammary fat pad. When tumors reached an approximate size of 3×3 mm (around 7 days after cell injection), mice were injected intravenously (i.v.) with 4 nmoles of each integrin agent (5 mice/probe+2 mice/no probe as control) in 100 μL volume via tail vein. Imaging was conducted 24 hours post-injection using a Fluorescence Molecular Tomography system (VisEn Medical, Bedford, Mass.).

[8] = tested on: human rhabdomyosarcoma A673 tumor cells; experiment: Cell binding assay by fluorescence microscopy, A673 tumor cells; assay type: cell-based
Protocol: as §2

α5β1 = target: T3, α5β1 (Homo sapiens, UniProt P05556+P08648); experiment: Inhibition of cell attachment to vitronectin, HEK293 cells transfected with α5β1; assay type: cell-based; details: for IC50: HEK293 cells stably transfected with α5β1
T3 construct: expressed in transfected cells; host or cells: HEK293
Protocol: In this experiment, human embryonic kidney (HEK293) cells stably transfected with ανβ3 (HEK293-ανβ3 cells) were released with trypsin-EDTA and washed four times with serum-free MEM. Cells (25,000 cells/well) were added to microtiter wells coated with vitronectin and allowed to attach for 2 hours at 37° C. in a humidified incubator in the absence or presence of increasing concentrations of compound E-6 or unlabelled parent compound (as an inhibitor of E-6). Non-attached cells were gently washed away. Similar experiments were carried out with HEK293 cells stably transfected with ανβ5, α11bβ3, or α5β1. The attached cells were quantified by colorimetric detection of hexosaminidase enzymatic activity in a Vmax plate reader (Molecular Devices, Menlo Park, Calif.). The number of attached cells was quantified using a standard curve for each cell line assayed and expressed as a mean value of triplicate samples.

[9] = Plasma pharmacokinetics in mice; assay type: in vivo, BALB/c mice; details: 2 nmoles i.v. bolus, two compartmental model
From the text: Twenty-four female retired breeder BALB/c mice (Charles River Laboratories, Wilmington, Mass.) received a bolus intravenous (i.v.) injection of compound E-6 (2 nmoles in PBS). Terminal blood samples were collected by cardiac puncture from each mouse (following carbon dioxide asphyxiation). Three mice were sampled for each time point. Plasma was collected by centrifugation, diluted 1:2 in DMSO and fluorescence read using a fluorescence plate reader (Molecular Devices, Sunnyvale, Calif.). Data was normalized to a standard curve (FIG. 5A) prepared with known concentrations of E-6.

αIIbβ3 = target: T4, αIIbβ3 (Homo sapiens, UniProt P05106+P08514); experiment: Inhibition of cell attachment to vitronectin, HEK293 cells transfected with αIIbβ3; assay type: cell-based; details: for IC50: HEK293 cells stably transfected with αIIbβ3
T4 construct: expressed in transfected cells; host or cells: HEK293
Protocol: as §1

[10] = agent 20 nM, 30 minutes at 37° C.
[11] = pre-incubation 5 minutes with parent compound 200 nM

- IC50 (ανβ5): 33 nM
- loss of affinity to ανβ5 compared to the parent compound (ανβ5; ratio of Table 4 IC50 values): 25 fold
- koff (ανβ3 [1]; 100 nM E-6, 4° C., HEK293-ανβ3 cells, chase with parent compound, read-out: dissociation rate constant koff): 0.000108 s⁻¹
- Kd (ανβ3 [1]; HEK293-ανβ3 cells, 4° C., 30 minutes, single binding site model, read-out: apparent equilibrium binding constant (Kd)): 4.2 ± 0.6 nM
- binding isotherms in the absence or presence of Mn^2+ (ανβ3 [1]; in words): practically identical
- IC50 (ανβ3 [6]): 4.1 ± 0.3 nM
- loss of affinity to ανβ3 compared to the parent compound (ανβ3 [6]; ratio of Table 4 IC50 values): 5 fold
- IC50 (α5β1): > 2000 nM
- specific binding to α5β1 (α5β1; in words): no specific binding
- plasma t(1)1/2 (free E-6 clearing from circulation) [9]: 6 min
- plasma t(2)1/2 (clearance of bound E-6) [9]: 210 min
- IC50 (αIIbβ3): 39 nM
- potency in binding to α11bβ3 compared to the parent compound (αIIbβ3; in words): retains higher potency
Compound: Cc1ncc([C@@H](CCCCCCc2nc3c(cc2CNC(=O)CCCN(C)S(=O)(=O)c2cccc4c5c(ccc24)N(CCCS(=O)(=O)O)/C(=C/C=C/C=C/C2=[N+](CCS(=O)(=O)[O-])c4ccc6c(S(=O)(=O)O)cc(S(=O)(=O)O)cc6c4C2(C)C)C5(C)C)CCCN3)CC(=O)O)cn1 [Compound E-6]
- internalization (receptor recycling, endocytosis) (ανβ3 [2]; 37° C. versus 4° C.): internalization at 37° C., but not at 4 °C
- binding to HEK293-ανβ3 cells (confocal microscopy) (ανβ3 [2]; E-6 200 nM, 30 minutes, 4° C. or 37° C.): binds to the receptors on the surface of the cells
- fluorescent signal of labeled HUVEC cells [3, 10]: Significant fluorescent signal
- signal produced in tumors following Avastin treatment (A673 tumors [4]; A673 tumor-bearing mice, 2 nmoles agent, imaging 24 hours after): decreased by a greater amount than the signal produced by ProSense
- fluorescence in tumors (FMT imaging) (A673 tumors [5]; A673 tumor-bearing mice, agent i.v., in words): readily detected
- tissue distribution of fluorescence [7]: highest concentration found in tumors, followed by the liver, small intestine and skin
- imaging of tumors in vivo (4T-1 tumors): imaged effectively
- fluorescent signal of labeled A673 cells [8, 10]: Significant fluorescent signal

Compound: CCN1/C(=C/C=C(/C=C/C2N(CC)c3ccc4c(S(=O)(=O)O)cc(S(=O)(=O)O)cc4c3C2(C)C)c2ccc(C(=O)NCCCCCC(=O)NCc3cc4c(nc3CCCCCC[C@@H](CC(=O)O)c3cnc(C)nc3)NCCC4)cn2)C(C)(C)c2c1ccc1c(S(=O)(=O)O)cc(S(=O)(=O)O)cc21 (some centres unmarked) [Compound E-7]
- imaging of tumors in vivo (4T-1 tumors): imaged effectively

- IC50 (ανβ5): 1.3 ± 0.2 nM
- effect on binding of E-6 to HEK293-ανβ3 cells (competition) (ανβ3 [2]; parent compound 200 μM for 1 hour before E-6 incubation): prevented
- IC50 (ανβ3 [6]): 0.82 ± 0.2 nM
- IC50 (α5β1): > 10000 nM
- IC50 (αIIbβ3): > 10000 nM
Compound: Nc1ncnc2c1ncn2[C@@H]1O[C@H](OCP(=O)(O)O)C=C1F [Parent Compound, reference compound]
- E-6 fluorescence intensity from HUVEC cells in the presence of a blocking dose [3, 11]: reduced
- effect on total amount of E-6 signal in tumors (competition) (A673 tumors [5]; excess parent compound 100 nmoles, in words): effectively reduces
- decrease of total E-6 fluorescence in tumors (A673 tumors [5]; parent compound 100 nmoles versus E-6 alone, p=0.011): 67%
- E-6 fluorescence intensity from A673 cells in the presence of a blocking dose [8, 11]: reduced

Compound: Avastin: Avastin (bevacizumab, Genentech, CA), anti-angiogenic treatment [reference compound]
- effect of treatment on signal produced by compound E-6 in tumors (A673 tumors [4]; Avastin 2 mg/kg i.p. 2× week, agents injected after 7 days): decreased
